Data taken from US8685392B2 (priority 2009, dated 2014).

Tests used:
[1] = system: gliadin-degrading enzymes of strain WSA-2B
Procedure: (§1) Saliva ion buffer contains 50 mM KCl, 1 mM K2HPO4, 1 mM CaCl2 and 0.1 mM MgCl2 (pH 6.5). Cells were preincubated with the inhibitors for 15 min at room temperature prior to the addition of substrate. Z-YPQ-pNA hydrolysis was followed at 405 nm. Initial velocities of the enzymatic reaction are plotted.
(§2) Inhibitory effects were monitored toward the capacity to hydrolyze Z-YPQ-pNA. The initial rate of substrate proteolysis (Vi) was determined during the first 30 minute incubation time interval.

[2] = system: gliadin-degrading enzymes of strain WSA-8
Procedure: as §1, §2

SMILES: Cl.NCCc1ccc(S(=O)(=O)F)cc1 [AEBSF, 4-(2-Aminoethyl) benzenesulfonyl fluoride hydrochloride]
- inhibition of Z-YPQ-pNA hydrolysis (initial rate Vi) in WSA-2B [1]: 97%
- inhibition of Z-YPQ-pNA hydrolysis (initial rate Vi) in WSA-8 [2]: 78%
